# Laboratory results: ChEMBL document CHEMBL4507295 (2021)
# Tests used:
# [1] = molecular target: Activin receptor type-1 (Homo sapiens) (UniProt Q04771); conditions: Compound concentration 1000.0 nM
# [2] = molecular target: Activin receptor type-1-like (Homo sapiens) (UniProt P37023); conditions: Compound concentration 1000.0 nM
# [3] = molecular target: RAC-alpha serine/threonine-protein kinase (Homo sapiens) (UniProt P31749); conditions: Compound concentration 1000.0 nM
# [4] = molecular target: RAC-gamma serine/threonine-protein kinase (Homo sapiens) (UniProt Q9Y243); conditions: Compound concentration 1000.0 nM
# [5] = tested on: ALK tyrosine kinase receptor (Homo sapiens), Q9UM73 [C1156Y]; conditions: Compound concentration 1000.0 nM
# [6] = molecular target: BMP-2-inducible protein kinase (Homo sapiens) (UniProt Q9NSY1); conditions: Compound concentration 1000.0 nM
# [7] = molecular target: Calcium/calmodulin-dependent protein kinase type 1B (Homo sapiens) (UniProt Q6P2M8); conditions: Compound concentration 1000.0 nM
# [8] = molecular target: Calcium/calmodulin-dependent protein kinase type II subunit delta (Homo sapiens) (UniProt Q13557); conditions: Compound concentration 1000.0 nM
# [9] = molecular target: Calcium/calmodulin-dependent protein kinase type II subunit gamma (Homo sapiens) (UniProt Q13555); conditions: Compound concentration 1000.0 nM
# [10] = molecular target: Calcium/calmodulin-dependent protein kinase kinase 2 (Homo sapiens) (UniProt Q96RR4); conditions: Compound concentration 1000.0 nM
# [11] = molecular target: Serine/threonine-protein kinase Chk1 (Homo sapiens) (UniProt O14757); conditions: Compound concentration 1000.0 nM
# [12] = molecular target: Dual specificity protein kinase CLK4 (Homo sapiens) (UniProt Q9HAZ1); conditions: Compound concentration 1000.0 nM
# [13] = molecular target: Tyrosine-protein kinase CSK (Homo sapiens) (UniProt P41240); conditions: Compound concentration 1000.0 nM
# [14] = molecular target: Death-associated protein kinase 2 (Homo sapiens) (UniProt Q9UIK4); conditions: Compound concentration 1000.0 nM
# [15] = molecular target: Serine/threonine-protein kinase DCLK3 (Homo sapiens) (UniProt Q9C098); conditions: Compound concentration 1000.0 nM
# [16] = molecular target: Dual specificity tyrosine-phosphorylation-regulated kinase 1B (Homo sapiens) (UniProt Q9Y463); conditions: Compound concentration 1000.0 nM
# [17] = tested on: Epidermal growth factor receptor (Homo sapiens), P00533 [UNDEFINED MUTATION]; conditions: Compound concentration 1000.0 nM
# Epidermal growth factor receptor (Homo sapiens), P00533 [UNDEFINED MUTATION], sequence (P00533 whole entry, looked up, change not shown): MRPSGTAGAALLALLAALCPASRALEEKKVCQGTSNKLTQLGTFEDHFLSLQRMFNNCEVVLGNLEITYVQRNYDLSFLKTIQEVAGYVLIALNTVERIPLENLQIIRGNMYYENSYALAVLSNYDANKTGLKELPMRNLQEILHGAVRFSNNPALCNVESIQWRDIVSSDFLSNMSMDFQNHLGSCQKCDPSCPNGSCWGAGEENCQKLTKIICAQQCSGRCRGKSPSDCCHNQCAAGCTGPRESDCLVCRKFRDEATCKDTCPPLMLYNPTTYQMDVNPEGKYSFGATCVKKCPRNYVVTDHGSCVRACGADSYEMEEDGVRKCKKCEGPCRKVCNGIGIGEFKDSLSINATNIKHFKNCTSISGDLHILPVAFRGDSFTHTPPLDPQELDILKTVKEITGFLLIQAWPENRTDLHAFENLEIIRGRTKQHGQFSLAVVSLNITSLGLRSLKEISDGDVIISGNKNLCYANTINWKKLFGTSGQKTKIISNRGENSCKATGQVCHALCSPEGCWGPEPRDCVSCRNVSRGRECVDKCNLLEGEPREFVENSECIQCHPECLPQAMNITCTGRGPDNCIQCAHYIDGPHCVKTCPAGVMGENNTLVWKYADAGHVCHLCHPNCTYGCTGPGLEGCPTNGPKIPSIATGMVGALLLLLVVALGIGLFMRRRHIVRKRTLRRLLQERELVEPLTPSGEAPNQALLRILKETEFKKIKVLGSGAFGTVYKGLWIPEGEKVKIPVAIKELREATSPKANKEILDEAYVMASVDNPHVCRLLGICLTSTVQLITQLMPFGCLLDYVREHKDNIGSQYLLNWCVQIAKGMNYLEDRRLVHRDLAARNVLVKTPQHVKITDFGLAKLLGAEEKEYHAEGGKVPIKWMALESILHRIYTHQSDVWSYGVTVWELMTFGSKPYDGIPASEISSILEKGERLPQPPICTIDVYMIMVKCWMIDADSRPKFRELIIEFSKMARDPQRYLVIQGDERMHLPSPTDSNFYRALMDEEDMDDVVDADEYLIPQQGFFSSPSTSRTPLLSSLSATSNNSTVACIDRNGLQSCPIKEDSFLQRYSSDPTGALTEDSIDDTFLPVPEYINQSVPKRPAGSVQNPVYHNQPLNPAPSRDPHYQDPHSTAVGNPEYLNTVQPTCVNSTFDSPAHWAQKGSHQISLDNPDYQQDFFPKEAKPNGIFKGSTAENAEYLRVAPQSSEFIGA
# [18] = tested on: Epidermal growth factor receptor (Homo sapiens), P00533 [UNDEFINED MUTATION]; conditions: Compound concentration 1000.0 nM; remark: listed apart in the source
# [19] = molecular target: Ephrin type-A receptor 5 (Homo sapiens) (UniProt P54756); conditions: Compound concentration 1000.0 nM
# [20] = molecular target: Ephrin type-A receptor 6 (Homo sapiens) (UniProt Q9UF33); conditions: Compound concentration 1000.0 nM
# [21] = molecular target: Ephrin type-B receptor 1 (Homo sapiens) (UniProt P54762); conditions: Compound concentration 1000.0 nM
# [22] = molecular target: Receptor tyrosine-protein kinase erbB-4 (Homo sapiens) (UniProt Q15303); conditions: Compound concentration 1000.0 nM
# Receptor tyrosine-protein kinase erbB-4 (Homo sapiens), sequence (Q15303 whole entry): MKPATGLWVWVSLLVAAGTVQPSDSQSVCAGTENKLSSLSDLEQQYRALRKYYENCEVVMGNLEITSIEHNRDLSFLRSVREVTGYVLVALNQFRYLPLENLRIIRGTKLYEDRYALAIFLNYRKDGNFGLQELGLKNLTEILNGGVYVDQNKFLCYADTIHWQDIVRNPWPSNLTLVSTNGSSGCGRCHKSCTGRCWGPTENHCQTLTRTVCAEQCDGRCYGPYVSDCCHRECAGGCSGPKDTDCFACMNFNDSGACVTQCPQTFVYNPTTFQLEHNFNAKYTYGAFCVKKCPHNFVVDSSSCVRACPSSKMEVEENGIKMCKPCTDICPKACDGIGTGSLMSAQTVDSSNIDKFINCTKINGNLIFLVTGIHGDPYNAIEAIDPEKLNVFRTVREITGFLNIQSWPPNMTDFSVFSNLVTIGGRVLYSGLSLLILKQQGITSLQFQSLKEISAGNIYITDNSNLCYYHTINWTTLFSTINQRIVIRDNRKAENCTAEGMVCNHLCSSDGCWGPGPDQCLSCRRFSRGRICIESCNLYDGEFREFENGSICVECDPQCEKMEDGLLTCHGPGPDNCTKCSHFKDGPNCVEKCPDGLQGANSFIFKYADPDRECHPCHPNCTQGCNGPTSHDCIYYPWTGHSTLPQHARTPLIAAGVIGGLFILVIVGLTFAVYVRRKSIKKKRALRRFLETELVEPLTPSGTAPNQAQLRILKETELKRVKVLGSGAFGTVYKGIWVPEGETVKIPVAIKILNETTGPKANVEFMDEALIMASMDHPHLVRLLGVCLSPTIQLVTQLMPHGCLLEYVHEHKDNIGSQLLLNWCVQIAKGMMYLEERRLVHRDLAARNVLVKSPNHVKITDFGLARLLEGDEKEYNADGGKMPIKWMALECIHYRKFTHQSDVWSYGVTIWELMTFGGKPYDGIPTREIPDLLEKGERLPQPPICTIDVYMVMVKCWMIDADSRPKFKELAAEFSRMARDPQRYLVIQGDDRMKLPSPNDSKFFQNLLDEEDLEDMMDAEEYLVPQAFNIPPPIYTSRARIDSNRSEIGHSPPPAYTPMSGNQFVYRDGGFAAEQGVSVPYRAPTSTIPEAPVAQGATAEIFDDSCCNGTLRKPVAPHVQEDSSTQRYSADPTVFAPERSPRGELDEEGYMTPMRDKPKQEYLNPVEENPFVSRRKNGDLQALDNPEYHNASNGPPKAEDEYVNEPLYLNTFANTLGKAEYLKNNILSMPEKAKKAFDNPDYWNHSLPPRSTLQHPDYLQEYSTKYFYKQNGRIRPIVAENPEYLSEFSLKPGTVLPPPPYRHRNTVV
# [23] = tested on: Receptor-type tyrosine-protein kinase FLT3 (Homo sapiens), P36888 [K663Q]; conditions: Compound concentration 1000.0 nM
# [24] = molecular target: G protein-coupled receptor kinase 3 (Homo sapiens) (UniProt P35626); conditions: Compound concentration 1000.0 nM
# [25] = molecular target: Insulin-like growth factor 1 receptor (Homo sapiens) (UniProt P08069); conditions: Compound concentration 1000.0 nM
# [26] = molecular target: Tyrosine-protein kinase JAK1 (Homo sapiens) (UniProt P23458); conditions: Compound concentration 1000.0 nM
# [27] = molecular target: Mast/stem cell growth factor receptor Kit (Homo sapiens) (UniProt P10721); conditions: Compound concentration 1000.0 nM
# Mast/stem cell growth factor receptor Kit (Homo sapiens), sequence (P10721 whole entry): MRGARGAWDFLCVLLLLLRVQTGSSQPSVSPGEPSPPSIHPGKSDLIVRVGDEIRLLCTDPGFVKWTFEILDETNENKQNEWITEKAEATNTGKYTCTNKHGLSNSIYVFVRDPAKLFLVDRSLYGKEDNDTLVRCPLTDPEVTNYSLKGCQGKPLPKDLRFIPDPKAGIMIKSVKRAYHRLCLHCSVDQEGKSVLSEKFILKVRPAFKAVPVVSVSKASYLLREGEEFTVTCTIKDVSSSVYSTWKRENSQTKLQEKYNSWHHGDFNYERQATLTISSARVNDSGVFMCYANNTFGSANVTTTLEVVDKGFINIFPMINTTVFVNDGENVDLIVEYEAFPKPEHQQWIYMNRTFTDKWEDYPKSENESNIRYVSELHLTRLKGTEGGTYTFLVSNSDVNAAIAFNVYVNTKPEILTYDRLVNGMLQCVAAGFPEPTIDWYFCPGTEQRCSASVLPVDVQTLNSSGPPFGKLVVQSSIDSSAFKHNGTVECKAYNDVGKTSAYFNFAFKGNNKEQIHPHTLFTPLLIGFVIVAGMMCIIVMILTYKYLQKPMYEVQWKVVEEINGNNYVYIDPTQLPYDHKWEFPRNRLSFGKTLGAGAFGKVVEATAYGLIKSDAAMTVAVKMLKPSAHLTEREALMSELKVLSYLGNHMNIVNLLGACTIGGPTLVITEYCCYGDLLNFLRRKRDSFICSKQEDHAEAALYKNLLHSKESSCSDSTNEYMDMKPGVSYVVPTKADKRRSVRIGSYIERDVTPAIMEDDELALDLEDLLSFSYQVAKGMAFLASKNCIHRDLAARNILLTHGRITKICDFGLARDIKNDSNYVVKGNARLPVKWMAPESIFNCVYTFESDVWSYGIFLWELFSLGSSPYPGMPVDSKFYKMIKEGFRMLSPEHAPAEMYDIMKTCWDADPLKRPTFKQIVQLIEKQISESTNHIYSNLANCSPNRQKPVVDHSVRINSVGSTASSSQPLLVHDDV
# [28] = molecular target: Microtubule-associated serine/threonine-protein kinase 1 (Homo sapiens) (UniProt Q9Y2H9); conditions: Compound concentration 1000.0 nM
# [29] = molecular target: Dual specificity mitogen-activated protein kinase kinase 2 (Homo sapiens) (UniProt P36507); conditions: Compound concentration 1000.0 nM
# [30] = molecular target: Serine/threonine-protein kinase mTOR (Homo sapiens) (UniProt P42345); conditions: Compound concentration 1000.0 nM
# [31] = molecular target: Cyclin-dependent kinase 16 (Homo sapiens) (UniProt Q00536); conditions: Compound concentration 1000.0 nM
# Cyclin-dependent kinase 16 (Homo sapiens), sequence (Q00536 whole entry): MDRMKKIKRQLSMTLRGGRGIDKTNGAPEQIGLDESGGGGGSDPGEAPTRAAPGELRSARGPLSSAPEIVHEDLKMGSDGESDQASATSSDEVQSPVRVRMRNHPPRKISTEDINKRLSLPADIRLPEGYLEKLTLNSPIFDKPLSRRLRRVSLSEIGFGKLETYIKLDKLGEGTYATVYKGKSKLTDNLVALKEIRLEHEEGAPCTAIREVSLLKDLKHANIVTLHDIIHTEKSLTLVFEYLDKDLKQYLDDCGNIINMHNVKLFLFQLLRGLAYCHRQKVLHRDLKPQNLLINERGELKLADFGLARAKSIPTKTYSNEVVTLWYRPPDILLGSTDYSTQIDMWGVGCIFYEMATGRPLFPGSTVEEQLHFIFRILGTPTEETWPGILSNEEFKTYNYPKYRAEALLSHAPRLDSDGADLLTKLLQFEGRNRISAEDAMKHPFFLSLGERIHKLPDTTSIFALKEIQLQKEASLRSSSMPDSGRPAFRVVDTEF
# [32] = molecular target: Cyclin-dependent kinase 14 (Homo sapiens) (UniProt O94921); conditions: Compound concentration 1000.0 nM
# [33] = tested on: Phosphatidylinositol 4,5-bisphosphate 3-kinase catalytic subunit alpha isoform (Homo sapiens), P42336 [C420R]; conditions: Compound concentration 1000.0 nM
# [34] = molecular target: Serine/threonine-protein kinase RIO3 (Homo sapiens) (UniProt O14730); conditions: Compound concentration 1000.0 nM
# [35] = molecular target: Ribosomal protein S6 kinase alpha-2 (Homo sapiens) (UniProt Q15349); conditions: Compound concentration 1000.0 nM
# [36] = molecular target: SNF-related serine/threonine-protein kinase (Homo sapiens) (UniProt Q9NRH2); conditions: Compound concentration 1000.0 nM
# [37] = molecular target: High affinity nerve growth factor receptor (Homo sapiens) (UniProt P04629); conditions: Compound concentration 1000.0 nM
# [38] = molecular target: Dual specificity protein kinase TTK (Homo sapiens) (UniProt P33981); conditions: Compound concentration 1000.0 nM
# [39] = molecular target: Tyrosine-protein kinase TXK (Homo sapiens) (UniProt P42681); conditions: Compound concentration 1000.0 nM
# [40] = molecular target: Serine/threonine-protein kinase 32B (Homo sapiens) (UniProt Q9NY57); conditions: Compound concentration 1000.0 nM
# Serine/threonine-protein kinase 32B (Homo sapiens), sequence (Q9NY57 whole entry): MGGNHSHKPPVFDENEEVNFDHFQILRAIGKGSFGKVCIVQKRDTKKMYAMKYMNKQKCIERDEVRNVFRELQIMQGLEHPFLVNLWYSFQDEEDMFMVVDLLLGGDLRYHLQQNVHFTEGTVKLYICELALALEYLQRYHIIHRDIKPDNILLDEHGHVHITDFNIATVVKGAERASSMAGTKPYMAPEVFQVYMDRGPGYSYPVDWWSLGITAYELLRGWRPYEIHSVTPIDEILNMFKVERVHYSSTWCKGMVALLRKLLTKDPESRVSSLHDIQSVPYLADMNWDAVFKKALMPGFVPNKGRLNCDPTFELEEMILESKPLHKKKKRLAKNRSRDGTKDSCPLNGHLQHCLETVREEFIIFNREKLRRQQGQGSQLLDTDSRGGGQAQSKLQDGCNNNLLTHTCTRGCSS
# [41] = molecular target: Serine/threonine-protein kinase 32C (Homo sapiens) (UniProt Q86UX6); conditions: Compound concentration 1000.0 nM
# Serine/threonine-protein kinase 32C (Homo sapiens), sequence (Q86UX6 whole entry): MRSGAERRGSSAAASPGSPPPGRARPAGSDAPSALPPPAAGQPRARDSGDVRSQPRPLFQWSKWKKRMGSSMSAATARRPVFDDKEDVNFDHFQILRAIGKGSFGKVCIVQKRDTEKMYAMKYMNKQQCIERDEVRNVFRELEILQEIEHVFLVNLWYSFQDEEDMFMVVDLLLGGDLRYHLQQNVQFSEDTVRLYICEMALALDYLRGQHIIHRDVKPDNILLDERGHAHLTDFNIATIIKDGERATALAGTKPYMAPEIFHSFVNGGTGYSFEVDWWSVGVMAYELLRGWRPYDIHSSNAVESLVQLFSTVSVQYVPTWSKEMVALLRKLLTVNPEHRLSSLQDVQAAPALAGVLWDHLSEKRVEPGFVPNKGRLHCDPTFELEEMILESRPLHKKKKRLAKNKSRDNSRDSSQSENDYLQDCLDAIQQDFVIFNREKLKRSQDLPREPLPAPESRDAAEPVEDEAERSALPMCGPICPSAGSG
# [42] = molecular target: 5-hydroxytryptamine receptor 2B (Homo sapiens) (UniProt P41595); conditions: Compound concentration 10.0 uM
# [43] = molecular target: GABA-A receptor; anion channel (Rattus norvegicus) (UniProt O09028+P15431+P18506+P18508+P19969+P20236+P23574+P23576+P28471+P28473+P30191+P62813+P63079+P63138+Q91ZM7+Q9ES14); conditions: Compound concentration 10.0 uM
compound,measurement,setting,value
N#CC1(c2ccccn2)CCN(Cc2cc(C(=O)N3CCCC3)c(=O)n3ccccc23)CC1,residual activity,[1],83%
same,residual activity,[2],100%
same,residual activity,[3],91%
same,residual activity,[4],74%
same,residual activity,[5],100%
same,residual activity,[6],92%
same,residual activity,[7],90%
same,residual activity,[8],97%
same,residual activity,[9],100%
same,residual activity,[10],100%
same,residual activity,[11],90%
same,residual activity,[12],97%
same,residual activity,[13],91%
same,residual activity,[14],94%
same,residual activity,[15],100%
same,residual activity,[16],53%
same,residual activity,[17],92%
same,residual activity,[18],67%
same,residual activity,[19],100%
same,residual activity,[20],100%
same,residual activity,[21],91%
same,residual activity,[22],85%
same,residual activity,[23],30%
same,residual activity,[24],77%
same,residual activity,[25],88%
same,residual activity,[26],95%
same,residual activity,[27],95%
same,residual activity,[28],82%
same,residual activity,[29],91%
same,residual activity,[30],58%
same,residual activity,[31],100%
same,residual activity,[32],100%
same,residual activity,[33],87%
same,residual activity,[34],90%
same,residual activity,[35],86%
same,residual activity,[36],91%
same,residual activity,[37],100%
same,residual activity,[38],98%
same,residual activity,[39],91%
same,residual activity,[40],100%
same,residual activity,[41],100%
same,inhibition,[42],5.44%
same,inhibition,[43],23.2%
N#CC1(c2ccccn2)CCN(Cc2cc(C(=O)O)c(=O)n3ccccc23)CC1 [MSD-M1PAM],residual activity,[1],96%
same,residual activity,[2],95%
same,residual activity,[3],100%
same,residual activity,[4],100%
same,residual activity,[5],100%
same,residual activity,[6],95%
same,residual activity,[7],100%
same,residual activity,[8],100%
same,residual activity,[9],100%
same,residual activity,[10],100%
same,residual activity,[11],100%
same,residual activity,[12],100%
same,residual activity,[13],100%
same,residual activity,[14],99%
same,residual activity,[15],89%
same,residual activity,[16],98%
same,residual activity,[17],100%
same,residual activity,[18],100%
same,residual activity,[19],89%
same,residual activity,[20],86%
same,residual activity,[21],100%
same,residual activity,[22],72%
same,residual activity,[23],100%
same,residual activity,[24],95%
same,residual activity,[25],89%
same,residual activity,[26],100%
same,residual activity,[27],100%
same,residual activity,[28],50%
same,residual activity,[29],100%
same,residual activity,[30],90%
same,residual activity,[31],67%
same,residual activity,[32],100%
same,residual activity,[33],97%
same,residual activity,[34],96%
same,residual activity,[35],100%
same,residual activity,[36],76%
same,residual activity,[37],88%
same,residual activity,[38],88%
same,residual activity,[39],100%
same,residual activity,[40],100%
same,residual activity,[41],72%
same,inhibition,[42],3.23%
same,inhibition,[43],20.2%
